Assay results from ChEMBL document CHEMBL1201862, “PubChem BioAssay data set” (2004).
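In this assay, cells in 96-well plates receive the compound at five concentrations for 48 hours. Endpoints are linearly interpolated between the surrounding concentrations. GI50 = concentration required for 50% inhibition of growth.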 Calls of active or inactive are those of the source. No stated cut-off is given here; in the data, active = GI50 up to about 1.1 µM and inactive = higher.

Key:
Assay in all cases: growth of human tumour cells (NCI), 48 h
[1] = test system: ACHN
[2] = test system: CCRF-CEM
[3] = test system: COLO 205
[4] = test system: EKVX
[5] = test system: HCT-15
[6] = test system: KM12
[7] = test system: MCF7
[8] = test system: NCI-H460
[9] = test system: NCI/ADR-RES
[10] = test system: OVCAR-3
[11] = test system: OVCAR-4
[12] = test system: OVCAR-5
[13] = test system: OVCAR-8
[14] = test system: PC-3
[15] = test system: SF-268
[16] = test system: SK-OV-3
[17] = test system: SN12C
[18] = test system: UO-31
[19] = test system: A498
[20] = test system: RXF 393

SMILES | GI50 [1] | GI50 [2] | GI50 [3] | GI50 [4] | GI50 [5] | GI50 [6] | GI50 [7] | GI50 [8] | GI50 [9] | GI50 [10] | GI50 [11] | GI50 [12] | GI50 [13] | GI50 [14] | GI50 [15] | GI50 [16] | GI50 [17] | GI50 [18] | GI50 [19] | GI50 [20]
Cc1ccc(C(=O)N(Cc2ccccc2)Cc2ccccc2)cc1/N=N/N(C)C | 7.01 µM (inactive) | 24.2 µM (inactive) | 21.5 µM (inactive) | 35.3 µM (inactive) | 17.3 µM | 8.32 µM (inactive) | 24.2 µM (inactive) | 14.7 µM (inactive) | 22.5 µM (inactive) | 4.49 µM (inactive) | 11.2 µM (inactive) | 39.2 µM (inactive) | 29.9 µM (inactive) | 25.9 µM (inactive) | 18.5 µM (inactive) | 29.5 µM (inactive) | 14.6 µM (inactive) | 15.6 µM (inactive) |  | 
O/N=N/c1ccc(Sc2ccc(/N=N/O)cn2)nc1 | > 100 µM (inactive) | > 100 µM (inactive) | > 100 µM (inactive) | > 100 µM (inactive) | > 100 µM | > 100 µM (inactive) | > 100 µM (inactive) | > 100 µM (inactive) | > 100 µM (inactive) | > 100 µM (inactive) | > 100 µM (inactive) | > 100 µM (inactive) | > 100 µM (inactive) | > 100 µM (inactive) | > 100 µM (inactive) | > 100 µM (inactive) | > 100 µM (inactive) | 46.8 µM (inactive) | > 100 µM (inactive) | 
Clc1cccc(/N=C/C=C/Nc2cccc(Cl)c2)c1 | > 10 µM (inactive) | > 10 µM (inactive) | 16.3 µM (inactive) | > 10 µM (inactive) | 17.8 µM | 14.1 µM (inactive) | 18.8 µM (inactive) | 17.7 µM (inactive) | 16.9 µM (inactive) | 18.3 µM (inactive) | 40.4 µM (inactive) | 24.8 µM (inactive) | 18 µM (inactive) | 15.1 µM (inactive) | > 10 µM (inactive) |  | 14 µM (inactive) | 16 µM (inactive) | 22.9 µM (inactive) | 20.8 µM (inactive)
COc1cc(C2c3cc4c(c(O)c3C(=O)C3CCC(=O)N32)OCO4)cc(OC)c1OC (stereo not drawn) | 75 µM (inactive) | 31.3 µM (inactive) | 5.52 µM (inactive) | > 100 µM (inactive) | 48.8 µM | 51.9 µM (inactive) | 77.1 µM (inactive) | 52.6 µM (inactive) | 89.1 µM (inactive) | 68.1 µM (inactive) | > 100 µM (inactive) | > 100 µM (inactive) | > 100 µM (inactive) | 38.8 µM (inactive) | 57 µM (inactive) | 46 µM (inactive) | > 100 µM (inactive) | 26.7 µM (inactive) | 39.9 µM (inactive) | 
COc1cccc2c1OC(c1cccc3ccccc13)C([N+](=O)[O-])=C2 (stereo not drawn) | 1.6 µM (inactive) | 0.312 µM (active) | 1.92 µM (inactive) | 3.07 µM (inactive) | 1.55 µM | 1.63 µM (inactive) | 0.728 µM (active) | 1.9 µM (inactive) | 1.71 µM (inactive) | 1.34 µM (inactive) | 3.32 µM (inactive) | 1.82 µM (inactive) | 4.24 µM (inactive) | 0.902 µM (active) | 2.96 µM (inactive) | 3.11 µM (inactive) | 2 µM (inactive) | 1.44 µM (inactive) |  | 1.31 µM (inactive)
CCNC(=S)NNC(=O)c1csc(NC(=S)NC2CCCCC2)n1 | 7 µM (inactive) | 4.55 µM (inactive) | 8.53 µM (inactive) | > 100 µM (inactive) | 1.67 µM | 11.1 µM (inactive) | 4.69 µM (inactive) | 6.62 µM (inactive) | 14.4 µM (inactive) | 3.25 µM (inactive) | 7.91 µM (inactive) | 26.9 µM (inactive) | 10 µM (inactive) | 17.4 µM (inactive) | 10.8 µM (inactive) | 21.3 µM (inactive) | 3.19 µM (inactive) | 8.45 µM (inactive) | 23 µM (inactive) | 
N#Cc1c(-c2ccccc2)c(C#N)c(=S)n(C2OC(CO)C(O)C(O)C2O)c1O (stereo not drawn) | > 100 µM (inactive) | > 100 µM (inactive) |  |  | > 100 µM | > 100 µM (inactive) | > 100 µM (inactive) | > 100 µM (inactive) | > 100 µM (inactive) | > 100 µM (inactive) |  | > 100 µM (inactive) | > 100 µM (inactive) | > 100 µM (inactive) | > 100 µM (inactive) | > 100 µM (inactive) | > 100 µM (inactive) | > 100 µM (inactive) | > 100 µM (inactive) | > 100 µM (inactive)
CCOC(=O)CNC(=O)C(CSCC1C(=O)Nc2ccccc21)NC(=O)CCC(N)C(=O)OCC (stereo not drawn) | 1.62 µM (inactive) | 0.269 µM (active) | 1.24 µM (inactive) | 1.75 µM (inactive) | 1.04 µM | 2.89 µM (inactive) | 1.07 µM (active) | 3.28 µM (inactive) | 1.08 µM (active) | 2.01 µM (inactive) | 2.78 µM (inactive) | 1.84 µM (inactive) | 2.81 µM (inactive) | 1.88 µM (inactive) | 1.86 µM (inactive) |  | 1.52 µM (inactive) | 1.23 µM (inactive) | 3.12 µM (inactive) | 1.19 µM (inactive)
COc1cccc2c1C(=O)c1c(O)c3c(c(O)c1C2=O)C[C@@](O)(C(=O)CO)C[C@@H]3OC1CC(N)C(OC)C(C)O1 (stereo partly drawn) | 0.0242 µM (active) | < 0.0146 µM (active) | 0.209 µM (active) | 0.522 µM (active) | 1.98 µM | 0.0968 µM (active) | < 0.01 µM (active) | < 0.01 µM (active) |  | 0.338 µM (active) | 0.458 µM (active) | 0.189 µM (active) | 0.0289 µM (active) | 0.153 µM (active) | 0.0726 µM (active) | 0.0767 µM (active) | 0.0378 µM (active) | 0.437 µM (active) | 0.116 µM (active) | 0.19 µM (active)
CC1(C)C2CC(c3ccncc3)ON2C(C)(C)N1O (stereo not drawn) | > 100 µM (inactive) | > 100 µM (inactive) | > 100 µM (inactive) | > 100 µM (inactive) | > 100 µM | > 100 µM (inactive) | > 100 µM (inactive) | > 100 µM (inactive) | > 100 µM (inactive) | > 100 µM (inactive) | > 100 µM (inactive) | > 100 µM (inactive) | > 100 µM (inactive) | > 100 µM (inactive) | > 100 µM (inactive) | > 100 µM (inactive) | > 100 µM (inactive) | > 100 µM (inactive) |  | > 100 µM (inactive)
N#CCCC1C(C#N)C2CC1C1C3C=CC(C3)C21 (stereo not drawn) | > 100 µM (inactive) | > 100 µM (inactive) | > 100 µM (inactive) | > 100 µM (inactive) | > 100 µM | > 100 µM (inactive) | > 100 µM (inactive) |  | > 100 µM (inactive) | > 100 µM (inactive) | > 100 µM (inactive) | > 100 µM (inactive) | > 100 µM (inactive) | > 100 µM (inactive) | > 100 µM (inactive) | > 100 µM (inactive) |  | > 100 µM (inactive) |  | 63.4 µM (inactive)
CCC(C)c1c(Cl)nc(Cl)nc1Cl (stereo not drawn) | 3.37 µM (inactive) | 0.1 µM (active) |  | 15.5 µM (inactive) | 5.13 µM | 1.78 µM (inactive) | 4.45 µM (inactive) | 7.46 µM (inactive) | 24.2 µM (inactive) | 4.57 µM (inactive) | 16.9 µM (inactive) | 16.7 µM (inactive) | 17.9 µM (inactive) | 12.7 µM (inactive) | 8.04 µM (inactive) | 36.2 µM (inactive) | 6.89 µM (inactive) | 17.9 µM (inactive) |  | 8.02 µM (inactive)
COc1c2c(cc3occ(-c4ccc(CC=C(C)C)cc4)c(=O)c13)OC(C)(C)C=C2 | 77.6 µM (inactive) | 12.8 µM (inactive) | 43.4 µM (inactive) | 28.4 µM (inactive) | 45.9 µM | 41.4 µM (inactive) | 31 µM (inactive) |  | 18.2 µM (inactive) | 10.3 µM (inactive) | > 10 µM (inactive) | > 100 µM (inactive) | 48.4 µM (inactive) | 17.1 µM (inactive) | > 100 µM (inactive) | > 100 µM (inactive) | 84.1 µM (inactive) | 33.1 µM (inactive) |  | 43.4 µM (inactive)
O/N=N/c1ccc2ccccc2n1 | > 100 µM (inactive) | > 100 µM (inactive) | > 10 µM (inactive) | 90.2 µM (inactive) | > 100 µM | > 100 µM (inactive) | > 100 µM (inactive) | > 100 µM (inactive) | > 100 µM (inactive) | > 100 µM (inactive) | > 100 µM (inactive) | > 100 µM (inactive) | > 100 µM (inactive) | > 100 µM (inactive) | > 100 µM (inactive) | > 100 µM (inactive) | > 100 µM (inactive) | > 100 µM (inactive) | 72.9 µM (inactive) | 
C/C(=N\O)c1ccc2ccc3ccccc3c2c1 | 32.8 µM (inactive) | 51.3 µM (inactive) | 37.3 µM (inactive) | 15.3 µM (inactive) | 28.9 µM | 21.5 µM (inactive) | 41.1 µM (inactive) | 42.6 µM (inactive) | 31.3 µM (inactive) | 34.2 µM (inactive) | 23 µM (inactive) | 52.2 µM (inactive) | 21.6 µM (inactive) | 32.3 µM (inactive) | 44.9 µM (inactive) | > 100 µM (inactive) | 30.8 µM (inactive) | 35.1 µM (inactive) |  | 34.3 µM (inactive)
